Measured values from ChEMBL document CHEMBL5532657, “Serendipitous discovery of Class I HDAC inhibitors from rational design of molecular glue degraders targeting HDAC” (Eur J Med Chem, 2024).
Active and inactive are the calls of the source. The calls are words filed in the database; no cut-off is given here.

How the values were obtained:
Histone deacetylase 1 = Histone deacetylase 1 (Homo sapiens, UniProt Q13547); assay: Induction of HDAC1 degradation in human RS4-11 cells at 0.5 to 10 uM incubated for 12 hrs by Western blotting analysis; type: cell-based; details: dose 0.5-10 µM
[1] = target: T1, Protein deacetylase HDAC6 (Homo sapiens) (UniProt Q9UBN7); assay: Induction of HDAC6 degradation in human RS4-11 cells at 0.5 to 10 uM incubated for 12 hrs by Western blotting analysis; type: cell-based; details: dose 0.5-10 µM
T1 sequence (whole entry): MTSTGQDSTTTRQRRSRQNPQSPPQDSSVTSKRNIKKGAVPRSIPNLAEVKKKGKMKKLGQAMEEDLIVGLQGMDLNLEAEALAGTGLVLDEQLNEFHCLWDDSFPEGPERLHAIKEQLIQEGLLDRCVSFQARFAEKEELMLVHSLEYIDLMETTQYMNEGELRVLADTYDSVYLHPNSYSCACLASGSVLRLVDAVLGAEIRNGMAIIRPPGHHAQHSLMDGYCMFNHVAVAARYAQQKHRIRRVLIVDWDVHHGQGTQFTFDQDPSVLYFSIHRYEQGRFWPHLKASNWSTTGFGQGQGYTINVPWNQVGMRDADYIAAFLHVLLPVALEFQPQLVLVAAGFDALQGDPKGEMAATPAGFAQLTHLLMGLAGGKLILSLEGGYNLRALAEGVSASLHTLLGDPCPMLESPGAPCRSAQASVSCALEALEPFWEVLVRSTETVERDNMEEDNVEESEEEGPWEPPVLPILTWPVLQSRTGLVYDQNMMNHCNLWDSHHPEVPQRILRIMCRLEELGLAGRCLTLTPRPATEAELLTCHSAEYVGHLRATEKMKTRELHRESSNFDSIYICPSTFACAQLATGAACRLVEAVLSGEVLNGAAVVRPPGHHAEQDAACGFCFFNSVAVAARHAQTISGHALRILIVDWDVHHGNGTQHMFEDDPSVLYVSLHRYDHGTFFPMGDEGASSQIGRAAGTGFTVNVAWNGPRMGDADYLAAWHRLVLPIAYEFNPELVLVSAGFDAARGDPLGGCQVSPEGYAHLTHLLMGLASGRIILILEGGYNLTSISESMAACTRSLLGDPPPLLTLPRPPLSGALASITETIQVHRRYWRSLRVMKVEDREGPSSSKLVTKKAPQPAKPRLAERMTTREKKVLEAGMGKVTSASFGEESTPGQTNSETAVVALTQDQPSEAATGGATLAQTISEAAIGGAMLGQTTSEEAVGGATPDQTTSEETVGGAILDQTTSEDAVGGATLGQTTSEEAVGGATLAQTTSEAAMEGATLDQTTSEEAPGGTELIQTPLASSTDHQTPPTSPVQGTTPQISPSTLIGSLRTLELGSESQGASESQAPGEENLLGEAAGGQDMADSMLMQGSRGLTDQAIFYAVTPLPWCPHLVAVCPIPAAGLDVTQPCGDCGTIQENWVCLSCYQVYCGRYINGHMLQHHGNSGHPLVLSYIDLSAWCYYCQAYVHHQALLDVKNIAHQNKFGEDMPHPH

A549 = assay: Antiproliferative activity against human A549 cells assessed as cell growth inhibition at 5 uM incubated for 48 hrs by CCK-8 assay; type: functional, cell-based
HCT-116 = assay: Antiproliferative activity against human HCT-116 cells assessed as cell growth inhibition at 5 uM incubated for 48 hrs by CCK-8 assay; type: functional, cell-based
HeLa = assay: Antiproliferative activity against human HeLa cells assessed as cell growth inhibition at 5 uM incubated for 48 hrs by CCK-8 assay; type: functional, cell-based

Histone deacetylase 1, sequence (Q13547 whole entry): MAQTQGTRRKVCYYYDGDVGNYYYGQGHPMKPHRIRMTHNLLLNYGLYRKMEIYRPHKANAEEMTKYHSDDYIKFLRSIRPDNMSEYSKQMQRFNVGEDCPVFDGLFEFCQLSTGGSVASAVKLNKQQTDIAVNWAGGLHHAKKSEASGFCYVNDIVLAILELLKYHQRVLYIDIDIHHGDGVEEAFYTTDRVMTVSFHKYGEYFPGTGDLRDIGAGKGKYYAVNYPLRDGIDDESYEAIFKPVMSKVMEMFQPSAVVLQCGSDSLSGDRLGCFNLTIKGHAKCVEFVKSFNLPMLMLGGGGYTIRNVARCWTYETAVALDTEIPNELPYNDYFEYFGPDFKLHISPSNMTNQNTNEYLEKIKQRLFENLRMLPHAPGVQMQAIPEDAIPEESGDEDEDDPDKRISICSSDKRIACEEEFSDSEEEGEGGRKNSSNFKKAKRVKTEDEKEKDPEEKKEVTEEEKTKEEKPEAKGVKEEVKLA

Activity (Histone deacetylase 1) | Activity [1] | Structure (SMILES) | Activity (A549) | Activity (HCT-116) | Activity (HeLa)
inactive | inactive | O=C1CCC(N2C(=O)c3cccc(NCCOCCOCCn4cc(C(=O)NCCS)nn4)c3C2=O)C(=O)N1 (stereo not given) | inactive | inactive | inactive
inactive | inactive | O=C(CCCCCNc1cccc2c1C(=O)N(C1CCC(=O)NC1=O)C2=O)NCCS (stereo not given) | inactive | inactive | inactive
inactive | inactive | Nc1cc(F)ccc1NC(=O)c1cn(CCOCCNc2cccc3c2C(=O)N(C2CCC(=O)NC2=O)C3=O)nn1 (stereo not given) | inactive | inactive | inactive
inactive | inactive | O=C1CCC(N2C(=O)c3cccc(NCc4ccc(C(=O)NO)cc4)c3C2=O)C(=O)N1 (stereo not given) | inactive | inactive | inactive
inactive | inactive | Nc1ccccc1NC(=O)CCCNc1cccc2c1C(=O)N(C1CCC(=O)NC1=O)C2=O (stereo not given) | inactive | inactive | inactive
inactive | inactive | Nc1ccccc1NC(=O)c1cn(CCOCCNc2cccc3c2C(=O)N(C2CCC(=O)NC2=O)C3=O)nn1 (stereo not given) | inactive | inactive | inactive
inactive | inactive | O=C(CCCNc1cccc2c1C(=O)N(C1CCC(=O)NC1=O)C2=O)NCCS (stereo not given) | inactive | inactive | inactive
inactive | inactive | Nc1cc(F)ccc1NC(=O)CCCNc1cccc2c1C(=O)N(C1CCC(=O)NC1=O)C2=O (stereo not given) | inactive | inactive | inactive
inactive | inactive | Nc1cccc2c1C(=O)N(C1CCC(=O)NC1=O)C2=O (stereo not given) | inactive | inactive | inactive
inactive | inactive | O=C1CCC(N2C(=O)c3cccc(NCCOCCn4cc(C(=O)NO)nn4)c3C2=O)C(=O)N1 (stereo not given) | inactive | inactive | inactive
inactive | inactive | Nc1cc(F)ccc1NC(=O)CCCCCNc1cccc2c1C(=O)N(C1CCC(=O)NC1=O)C2=O (stereo not given) | inactive | inactive | inactive
inactive | inactive | Nc1ccccc1NC(=O)CCCCCCCNc1cccc2c1C(=O)N(C1CCC(=O)NC1=O)C2=O (stereo not given) | inactive | inactive | inactive
inactive | inactive | O=C1CCC(N2C(=O)c3cccc(NCCOCCn4cc(C(=O)NCCS)nn4)c3C2=O)C(=O)N1 (stereo not given) | inactive | inactive | inactive
inactive | inactive | Nc1ccccc1NC(=O)CCCCCCNc1cccc2c1C(=O)N(C1CCC(=O)NC1=O)C2=O (stereo not given) | inactive | inactive | inactive
inactive | inactive | O=C(CCCNc1cccc2c1C(=O)N(C1CCC(=O)NC1=O)C2=O)NO (stereo not given) | inactive | inactive | inactive
inactive | inactive | O=C1CCC(N2C(=O)c3cccc(NCCOCCOCCOCCn4cc(C(=O)NCCS)nn4)c3C2=O)C(=O)N1 (stereo not given) | inactive | inactive | inactive
inactive | inactive | Nc1cc(F)ccc1NC(=O)CCCCNc1cccc2c1C(=O)N(C1CCC(=O)NC1=O)C2=O (stereo not given) | inactive | inactive | inactive
inactive | inactive | O=C(CCCCNc1cccc2c1C(=O)N(C1CCC(=O)NC1=O)C2=O)NO (stereo not given) | inactive | inactive | inactive
inactive | inactive | Nc1cc(F)ccc1NC(=O)CCCCCCNc1cccc2c1C(=O)N(C1CCC(=O)NC1=O)C2=O (stereo not given) | inactive | inactive | inactive
inactive | inactive | O=C(CCCCCCNc1cccc2c1C(=O)N(C1CCC(=O)NC1=O)C2=O)NCCS (stereo not given) | inactive | inactive | inactive
inactive | inactive | Nc1ccccc1NC(=O)CCCCCNc1cccc2c1C(=O)N(C1CCC(=O)NC1=O)C2=O (stereo not given) | inactive | inactive | inactive
inactive | inactive | O=C(CCCCCCCNc1cccc2c1C(=O)N(C1CCC(=O)NC1=O)C2=O)NO (stereo not given) | inactive | inactive | inactive
inactive | inactive | Nc1ccccc1NC(=O)CCCCNc1cccc2c1C(=O)N(C1CCC(=O)NC1=O)C2=O (stereo not given) | inactive | inactive | inactive
inactive | inactive | O=C1CCC(N2C(=O)c3cccc(NCCOCCOCCn4cc(C(=O)NO)nn4)c3C2=O)C(=O)N1 (stereo not given) | inactive | inactive | inactive
inactive | inactive | CCCNNC(=O)CCCCCCNc1cccc2c1C(=O)N(C1CCC(=O)NC1=O)C2=O (stereo not given) | inactive | inactive | inactive
inactive | inactive | O=C(CCCCCNc1cccc2c1C(=O)N(C1CCC(=O)NC1=O)C2=O)NO (stereo not given) | inactive | inactive | inactive
inactive | inactive | CCCNNC(=O)c1ccc(CNc2cccc3c2C(=O)N(C2CCC(=O)NC2=O)C3=O)cc1 (stereo not given) | inactive | inactive | inactive
inactive | inactive | Nc1cc(F)ccc1NC(=O)c1cn(CCOCCOCCNc2cccc3c2C(=O)N(C2CCC(=O)NC2=O)C3=O)nn1 (stereo not given) | inactive | inactive | inactive
inactive | inactive | CCNNC(=O)c1ccc(CNc2cccc3c2C(=O)N(C2CCC(=O)NC2=O)C3=O)cc1 (stereo not given) | inactive | inactive | inactive
